Our source for the IC50 values is ChEMBL document CHEMBL2429853, “Gardovatine, a novel Strychnos-Strychnos bisindole alkaloid with cytotoxicity from Gardneria oveta” (Bioorg Med Chem Lett, 2013).

Each structure is given as a SMILES string.

Holding throughout (assay type): functional, cell-based
For assay [1], the system named is SW480. Description: Cytotoxicity against human SW480 after 48 hrs by MTT assay. To be noted: SW480, 48 h. For orientation: Tetrazolium dyes change colour on reduction, which living cells bring about.
The subject of assay [2] is A549. Description: Cytotoxicity against human A549 after 48 hrs by MTT assay. The settings on record: A549, 48 h.
Assay [3] has as its system MCF7. Briefly: Cytotoxicity against human MCF7 after 48 hrs by MTT assay. To be noted: MCF7, 48 h.
In assay [4] the test system is SMMC-7721. Description: Cytotoxicity against human SMMC7721 after 48 hrs by MTT assay. To be noted: SMMC-7721, 48 h.
Assay [5] has as its system HL-60. Description: Cytotoxicity against human HL60 after 48 hrs by MTT assay. The settings on record: HL-60, 48 h.

For the compound `C/C=C1/CN2CCc3c4n(c5ccccc35)/C=C3/[C@H]5C[C@@H]6N(CC[C@@]67c6ccccc6N(/C=C\4[C@H]1CC2=O)[C@@H]37)C/C5=C/C` [(15S,19E,2'S,3'S,7'R,15'S,19'E)-GARDOVATINE], the IC50 (commonly the concentration at which inhibition is half-maximal) in assay [1] amounted to 16.1 µM; in assay [2], 14.2 µM; in assay [3], 13.9 µM; in assay [4], 10.5 µM; in assay [5], 9.8 µM.
In the case of `C/C=C1/CN2CC[C@]34c5ccccc5N5[C@H]3[C@H]([C@H]3O[C@]6([C@@H]7N3c3ccccc3[C@@]73CCN7C/C(=C/C)[C@@H]6C[C@H]73)[C@H]5OC)[C@H]1C[C@H]24` [DIVARINE], the IC50 in assay [1] came to 1.6 µM; in assay [2], 3.2 µM; in assay [3], 3 µM; in assay [4], 3.2 µM; in assay [5] it was 1.2 µM.
